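1) Cells in 96-well plates. 2) Compound, 48 h, 5 concentrations. 3) Linear interpolation between surrounding doses. 4) Unreached endpoint = highest concentration. At the GI50, growth is halved. TGI: concentration producing complete growth inhibition.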
Columns and labels:
Assay in all cases: inhibition of tumour cell growth, NCI panel, 48 h; in the data active = GI50 below about 0.43 µM; inactive = the rest
OVCAR-4 ovarian = tested on: OVCAR-4 ovarian
HS 578T breast = tested on: HS 578T breast
SR leukemia = tested on: SR leukemia
NCI/ADR-RES ovarian = tested on: NCI/ADR-RES ovarian
RPMI-8226 leukemia = tested on: RPMI-8226 leukemia
K-562 leukemia = tested on: K-562 leukemia
UACC-257 melanoma = tested on: UACC-257 melanoma
SF-295 CNS = tested on: SF-295 CNS
MCF7 breast = tested on: MCF7 breast
SNB-19 CNS = tested on: SNB-19 CNS
MDA-MB-231 breast = tested on: MDA-MB-231 breast
A549 NSCLC = tested on: A549 NSCLC
CCRF-CEM leukemia = tested on: CCRF-CEM leukemia
MOLT-4 leukemia = tested on: MOLT-4 leukemia
HOP-62 NSCLC = tested on: HOP-62 NSCLC
NCI-H226 lung = tested on: NCI-H226 lung
MALME-3M melanoma = tested on: MALME-3M melanoma
UACC-62 melanoma = tested on: UACC-62 melanoma
SNB-75 CNS = tested on: SNB-75 CNS
A498 renal = tested on: A498 renal
SK-MEL-2 melanoma = tested on: SK-MEL-2 melanoma
OVCAR-3 ovarian = tested on: OVCAR-3 ovarian
COLO 205 colon = tested on: COLO 205 colon
NCI-H460 lung = tested on: NCI-H460 lung
SF-268 CNS = tested on: SF-268 CNS
HCT-15 colon = tested on: HCT-15 colon
SK-MEL-5 melanoma = tested on: SK-MEL-5 melanoma
TK-10 renal = tested on: TK-10 renal
786-0 renal = tested on: 786-0 renal
RXF 393 renal = tested on: RXF 393 renal
CAKI-1 renal = tested on: CAKI-1 renal
M14 melanoma = tested on: M14 melanoma
BT-549 breast = tested on: BT-549 breast
MDA-MB-435 = tested on: MDA-MB-435
HCC-2998 colon = tested on: HCC-2998 colon
SK-OV-3 ovarian = tested on: SK-OV-3 ovarian
SK-MEL-28 melanoma = tested on: SK-MEL-28 melanoma
UO-31 renal = tested on: UO-31 renal
U251 CNS = tested on: U251 CNS
HCT-116 colon = tested on: HCT-116 colon
PC-3 prostate = tested on: PC-3 prostate
OVCAR-8 ovarian = tested on: OVCAR-8 ovarian
IGROV1 ovarian = tested on: IGROV1 ovarian
SF-539 CNS = tested on: SF-539 CNS
DU-145 prostate = tested on: DU-145 prostate
LOX IMVI melanoma = tested on: LOX IMVI melanoma
SW-620 colon = tested on: SW-620 colon
HT29 colon = tested on: HT29 colon
ACHN renal = tested on: ACHN renal
NCI-H23 lung = tested on: NCI-H23 lung
EKVX NSCLC = tested on: EKVX NSCLC
T-47D breast = tested on: T-47D breast
KM12 colon = tested on: KM12 colon
OVCAR-5 ovarian = tested on: OVCAR-5 ovarian

CC1=C(C)C(=O)OC([C@](C)(O)[C@]2(O)CC[C@@]3(O)[C@@H]4C[C@H]5O[C@]56CC=CC(=O)[C@]6(C)[C@H]4CC[C@]23COC(=O)c2ccc(C)o2)C1 (some centres undefined)
> 43.5 µM: TGI (K-562 leukemia)
> 31.8 µM: TGI (MALME-3M melanoma)
> 33.2 µM: TGI (RPMI-8226 leukemia)
> 51.6 µM: TGI (HS 578T breast)
> 24.7 µM: TGI (SNB-19 CNS)
> 34.1 µM: TGI (OVCAR-4 ovarian)
> 32.4 µM: TGI (A549 NSCLC)
> 35.4 µM: TGI (CCRF-CEM leukemia)
> 32.6 µM: TGI (SF-295 CNS)
> 33 µM: TGI (NCI-H226 lung)
inactive: GI50 (MCF7 breast) > 100 µM
> 79.7 µM: TGI (NCI/ADR-RES ovarian)
> 20.9 µM: TGI (UACC-257 melanoma)
> 21 µM: TGI (HOP-62 NSCLC)
> 100 µM: TGI (SR leukemia) | TGI (MCF7 breast)
> 24.4 µM: TGI (MDA-MB-231 breast)
> 22.4 µM: TGI (MOLT-4 leukemia)

CC(C)(C)NC1C2CCC(C)(C1O)C2(C)C (centres undefined)
21.6 µM: TGI (ACHN renal)
14.7 µM: TGI (MCF7 breast)
26.2 µM: TGI (SNB-75 CNS)
5.19 µM: TGI (A498 renal)
> 100 µM: TGI (OVCAR-4 ovarian) | TGI (SK-MEL-2 melanoma) | TGI (OVCAR-3 ovarian) | TGI (COLO 205 colon) | TGI (NCI-H460 lung) | TGI (SF-268 CNS) | TGI (SR leukemia) | TGI (HCT-15 colon) | TGI (SK-MEL-5 melanoma) | TGI (NCI/ADR-RES ovarian) | TGI (TK-10 renal) | TGI (RPMI-8226 leukemia) | TGI (786-0 renal) | TGI (RXF 393 renal) | TGI (CAKI-1 renal) | TGI (K-562 leukemia) | TGI (M14 melanoma) | TGI (BT-549 breast) | TGI (MDA-MB-435) | TGI (HCC-2998 colon) | TGI (SK-OV-3 ovarian) | TGI (UACC-257 melanoma) | TGI (SK-MEL-28 melanoma) | TGI (SF-295 CNS) | TGI (UO-31 renal) | TGI (U251 CNS) | TGI (HCT-116 colon) | TGI (PC-3 prostate) | TGI (OVCAR-8 ovarian) | TGI (IGROV1 ovarian) | TGI (SNB-19 CNS) | TGI (SF-539 CNS) | TGI (MDA-MB-231 breast) | TGI (DU-145 prostate) | TGI (A549 NSCLC) | TGI (LOX IMVI melanoma) | TGI (SW-620 colon) | TGI (HT29 colon) | TGI (NCI-H23 lung) | TGI (MOLT-4 leukemia) | TGI (HOP-62 NSCLC) | TGI (EKVX NSCLC) | TGI (T-47D breast) | TGI (KM12 colon) | TGI (OVCAR-5 ovarian) | TGI (MALME-3M melanoma)
12.5 µM: TGI (UACC-62 melanoma)

— PubChem BioAssay (NCI)
